Measurements taken from patent publication EP4603105A1, “PHARMACEUTICAL COMPOSITION CONTAINING CYCLIC COMPOUND HAVING SELECTIVE KRAS INHIBITORY EFFECT AGAINST HRAS AND NRAS” (CHUGAI SEIYAKU KABUSHIKI KAISHA, priority 2022, dated 2024).

Assays:
HRAS wild-type protein = HRAS wild-type protein (Homo sapiens, UniProt P01112); assay: Binding to HRAS by surface plasmon resonance (SPR), KD and KD ratio to KRAS
In short: (§1)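 Recombinant RAS proteins bearing a biotinylated Avi tag and loaded with GDP served as the captured ligand, recaptured fresh every cycle. Binding responses were referenced to an uncoated surface and a buffer-only blank cycle. Dissociation constants were obtained by 1:1 model fitting at 30°C.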

[1] = biological target: GDP-bound NRAS wild-type protein (Homo sapiens, UniProt P01111); assay: Binding to NRAS by surface plasmon resonance (SPR), KD and KD ratio to KRAS
In short: as §1

[2] = system: human lung cancer strain NCI-H441; assay type: cell-based
In short: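 Signal came from […] measured per well once the reagent was added. Beforehand, cells were cultured at 37°C and 5% carbon dioxide on a compound series serially diluted in dimethyl sulfoxide.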

[3] = ratio of KD for HRAS wild-type protein to KD for KRAS
[4] = ratio of KD for GDP-bound NRAS wild-type protein to KD for KRAS
[5] = ratio of the KD value with respect to HRAS wild-type protein to the KD value with respect to KRAS
[6] = ratio of the KD value with respect to GDP-bound NRAS wild-type protein to the KD value with respect to KRAS

Chain of HRAS wild-type protein (P01112 whole entry): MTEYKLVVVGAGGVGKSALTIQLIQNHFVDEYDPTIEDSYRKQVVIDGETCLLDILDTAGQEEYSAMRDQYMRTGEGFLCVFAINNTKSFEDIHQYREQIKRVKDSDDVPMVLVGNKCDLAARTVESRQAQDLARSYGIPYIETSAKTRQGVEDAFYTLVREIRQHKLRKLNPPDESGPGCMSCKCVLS
Chain of GDP-bound NRAS wild-type protein (P01111 whole entry): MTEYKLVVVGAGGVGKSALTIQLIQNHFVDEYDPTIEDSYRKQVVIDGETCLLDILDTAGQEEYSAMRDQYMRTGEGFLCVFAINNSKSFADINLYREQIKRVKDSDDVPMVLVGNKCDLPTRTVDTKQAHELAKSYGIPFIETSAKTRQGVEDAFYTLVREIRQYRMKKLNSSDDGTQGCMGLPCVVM

| Compound | IC50 [2] [nM] | HRAS /KRAS (HRAS wild-type protein; [3]) | NRAS /KRAS [1, 4] | HRAS /KRAS (HRAS wild-type protein; [5]) | NRAS /KRAS [1, 6] | HRAS /KRAS (HRAS wild-type protein; ratio of KD value for HRAS wild-type protein to KD value for KRAS (SPR)) | NRAS /KRAS ([1]; ratio of KD value for GDP-bound NRAS wild-type protein to KD value for KRAS (SPR)) |
| --- | --- | --- | --- | --- | --- | --- | --- |
| CCO[C@@H]1C[C@H]2C(=O)NC3(CCC3)C(=O)N(C)[C@@H](C3CCCC3)C(=O)N(C)[C@H](C(=O)N(C)C)CC(=O)N(C)[C@@H](CC)C(=O)N[C@@H]([C@@H](C)CC)C(=O)N(C)CC(=O)N(C)[C@H]3CCCCCN(C3=O)[C@@H](Cc3ccc(F)c(OC)c3)C(=O)N(C)CC(=O)N[C@@H](CCc3cc(F)c(C(F)(F)F)c(F)c3)C(=O)N2C1 [PP0915] | 37.6 | B (a compound having 3 or more and less than 10 is denoted as B) | B (a compound having 3 or more and less than 10 is denoted as B) |  |  |  |  |
| CC[C@H](C)[C@@H]1NC(=O)[C@H](CC)N(C)C(=O)C[C@@H](C(=O)N(C)C)N(C)C(=O)[C@H](C2CCCC2)N(C)C(=O)C2(CCC2)NC(=O)[C@@H]2C[C@H](N3CCC(F)(F)CC3)CN2C(=O)[C@H](CCc2cc(F)c(C(F)(F)F)c(F)c2)NC(=O)CN(C)C(=O)[C@H](Cc2ccc(C(F)(F)F)cc2)N2CCCC[C@@H](C2=O)N(C)C(=O)CN(C)C1=O [PP0732] | 39.6 |  |  | B (a compound having 3 or more and less than 10 is denoted as B) | C (A compound having a KD ratio of 0.1 or more and less than 3 is denoted as C) |  |  |
| CC[C@H](C)[C@@H]1NC(=O)[C@H](CC(C)C)N(C)C(=O)C[C@@H](C(=O)N2CCOCC2)N(C)C(=O)[C@H](C2CCCC2)N(C)C(=O)C2(CCC2)NC(=O)[C@@H]2[C@@H](OCC3CC3)CCN2C(=O)[C@H](CCc2cc(F)c(C(F)(F)F)c(F)c2)NC(=O)CN(C)C(=O)[C@H](Cc2ccc(C(F)(F)F)cc2)N2CCCC[C@@H](C2=O)N(C)C(=O)CN(C)C1=O [PP1072] | 13 | B (a compound having 3 or more and less than 10 is denoted as B) | B (a compound having 3 or more and less than 10 is denoted as B) |  |  |  |  |
| CC[C@H](C)[C@@H]1NC(=O)[C@H](CC(C)C)N(C)C(=O)C[C@@H](C(=O)N2CCOCC2)N(C)C(=O)[C@H](C2CCCC2)N(C)C(=O)C2(CCC2)NC(=O)[C@@H]2[C@H]3C[C@H]3CN2C(=O)[C@H](CCc2cc(F)c(C(F)(F)F)c(F)c2)NC(=O)CN(C)C(=O)[C@H](Cc2ccc(C(F)(F)F)cc2)N2CCCC[C@@H](C2=O)N(C)C(=O)CN(C)C1=O [PP0810] | 12.8 | B (a compound having 3 or more and less than 10 is denoted as B) | B (a compound having 3 or more and less than 10 is denoted as B) |  |  |  |  |
| CCCO[C@@H]1C[C@H]2C(=O)NC3(CC(C)(C)C3)C(=O)N(C)[C@@H](C(CC)CC)C(=O)N(C)[C@H](C(=O)N(C)C)CC(=O)N(C)[C@H]3CCCc4ccc(cc4)C[C@@H](C(=O)N(C)CC(=O)N[C@@H](CCc4ccc(C(F)(F)F)c(OC)c4)C(=O)N2C1)N1CC/C=C\C[C@@H](C1=O)N(C)C(=O)CN(C)C(=O)[C@H]([C@@H](C)CC)NC3=O [PP3063] | 32.2 | B (a compound having 3 or more and less than 10 is denoted as B) | B (a compound having 3 or more and less than 10 is denoted as B) |  |  |  |  |

Second part, led by results:

| IC50 [2] [nM] | Compound | HRAS /KRAS (HRAS wild-type protein; [3]) | NRAS /KRAS [1, 4] | HRAS /KRAS (HRAS wild-type protein; [5]) | NRAS /KRAS [1, 6] | HRAS /KRAS (HRAS wild-type protein; ratio of KD value for HRAS wild-type protein to KD value for KRAS (SPR)) | NRAS /KRAS ([1]; ratio of KD value for GDP-bound NRAS wild-type protein to KD value for KRAS (SPR)) |
| --- | --- | --- | --- | --- | --- | --- | --- |
| 8.6 | CCO[C@@H]1C[C@H]2C(=O)NC3(CCC3)C(=O)N(C)[C@@H](C3CCCC3)C(=O)N(C)[C@H](C(=O)N(C)CC)CC(=O)N(C)[C@@H](CC3CCC3)C(=O)N[C@@H]([C@@H](C)CC)C(=O)N(C)CC(=O)N(C)[C@H]3C/C=C\CCN(C3=O)[C@@H](Cc3ccc(C(F)(F)F)cc3)C(=O)N(C)CC(=O)N[C@@H](CCc3ccc(C(F)(F)F)c(Cl)c3)C(=O)N2C1 [PP2826] | A (a compound having 10 or more and less than 20 is denoted as A) | A (a compound having 10 or more and less than 20 is denoted as A) |  |  |  |  |
| 10.3 | CCCN(C)C(=O)[C@@H]1CC(=O)N(C)[C@@H](C2CCC2)C(=O)N[C@@H]([C@@H](C)CC)C(=O)N(C)CC(=O)N(C)[C@H]2C/C=C\CCN(C2=O)[C@@H](Cc2ccc(C(F)(F)F)cc2)C(=O)N(C)CC(=O)N[C@@H](CCc2cc(F)c(C(F)(F)F)c(F)c2)C(=O)N2C[C@@H](C)C[C@H]2C(=O)NC2(CCC2)C(=O)N(C)[C@@H](C2CCCC2)C(=O)N1C [PP2083] |  |  | B (a compound having 3 or more and less than 10 is denoted as B) | A (a compound having 10 or more and less than 20 is denoted as A) |  |  |
| 2.7 | CCO[C@@H]1C[C@H]2C(=O)NC3(CC(C)(C)C3)C(=O)N(C)[C@@H](C3CCCC3)C(=O)N(C)[C@H](C(=O)N(C)C)CC(=O)N(C)[C@@H](CC(F)(F)F)C(=O)N[C@@H]([C@@H](C)CC)C(=O)N(C)CC(=O)N(C)[C@H]3C/C=C\CCN(C3=O)[C@@H](Cc3ccc(C(F)(F)F)cc3)C(=O)N(C)CC(=O)N[C@@H](CCc3cc(F)c(C(F)(F)F)c(F)c3)C(=O)N2C1 [PP1644] |  |  |  |  | A (a compound having 10 or more and less than 20 is denoted as A) | A (a compound having 10 or more and less than 20 is denoted as A) |
